Data set [1] can be described thus: Solubility in fasted state simulated intestinal fluid. In kind it is physicochemical. Conditions: FaSSIF, 37 °C, pH 6.5, fassif, thermodynamic from solid.
For data set [2] the following is noted: Humans, cited from earlier work; for CL: i.v.
A short description of data set [3]: Intrinsic metabolic clearance determined in human liver microsomes. In kind it is in vitro ADME. As to conditions: pH 7.4. (Liver microsomes are vesicles of endoplasmic reticulum, rich in cytochrome P450 enzymes.)
For data set [4] the following is noted: Rats, fraction unbound; ref Supplemental Table S1; cited from earlier work.
For data set [5] the following is noted: Humans, fraction unbound in plasma; ref Supplemental Table S1; cited from earlier work.
The conditions of data set [6]: ref Supplemental Table S1, cited from earlier work; for HBD: number of hydrogen bond donors; for log D: octanol/water at pH 7.4; for PSA: polar surface area.
The conditions of data set [7]: rat, in vivo, cited from earlier work.
The conditions of data set [8]: human, Caco-2, pH 7.4, with cyclosporine A 10 μM.
Another data set has as its system Caco‐2 cells (TC7 clone). Conditions: Equation 11 from measured P‐Caco2.

In brackets after ≈: the same amount, converted by molar mass. Like-named read-outs stand apart in the source and are kept apart here.

Take `CN(C)CCCN1c2ccccc2Sc2ccc(Cl)cc21` [Chlorpromazine]: the solubility (commonly how much of the substance goes into solution per volume) at 24 h in [1] is 814 µg/mL (≈ 2550 µM). In addition, in data set [2] (ref Supplemental Table S2), the CL was 76.6 L/h; the Vss – broadly, a proportionality between amount in the body and measured concentration, not a real space – was 8.88 L/kg. Moreover, in data set [2] (oral bioavailability, ref Supplemental Table S2), the F was 0.31. The microsomal CLint (usually the rate of metabolic loss divided by the concentration) at 1 μM in data set [3] is 47 µL/min/mg. The f up in data set [4] is 0.01. Moreover, the f up in data set [5] is 0.06. In data set [6], the HBD is 0; the log D (commonly the decadic logarithm of the distribution of all forms, ionised or not, between an organic phase and buffer at a given pH) is 2.82; the PSA was 1.8; the “Base pKa” value is listed as 9.7. Besides, in [7] (iv), the CL was 52 mL/min/kg. For the same compound, the F in [7] (po) is listed as 0.02.

With `CN1CCN(C2=Nc3cc(Cl)ccc3Nc3ccccc32)CC1` [Clozapine], the concentration in solution in [1] (solubility at 24 h) was 350 µg/mL (≈ 1070 µM). Also, the Papp (in general, a coefficient for how fast a substance crosses the barrier) at 2 h, 1 μM in data set [8] is 28.4 ×10⁻⁶ cm/s. Besides, the “Calculated P eff from P‐Caco2” value with Caco‐2 cells (TC7 clone) is listed as 3.7 10^−4 cm/s. Also, the “Urinary excretion (f e)” value in data set [2] (excreted unchanged in urine, ref Supplemental Table S1) is given as < 1 % of dose. Besides, the CL in [2] (ref Supplemental Table S2) is 13.02 L/h. Moreover, in [4], the f up is recorded as 0.1. Moreover, the f up in data set [5] is 0.06. In data set [6], the HBD is on record as 1, the “log D” value is 2.99 and the PSA was 25.6.
